In patent publication US11566007B2, “Ras inhibitors” (Revolution Medicines, Inc., priority 2019, dated 2023):
“And” between values parts separate entries of the source, which are not always exact repeats. Equal values may be shown once. Read-outs that look alike come from different tables or passages of the source.

What was measured:
NCI-H358 (K-Ras G12C) = assay: CellTiter-Glo cell viability assay, NCI-H358; type: cell-based, human; settings: NCI-H358, 5-day treatment, class symbols, read-out: Additional H358 Cell Viability assay data (K-Ras G12C, IC50)
In short: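 Four-parameter logistic fits were applied to luminescence data normalized against DMSO-treated wells. Readings were taken on day 5 following direct compound addition, after roughly 30 minutes at room temperature.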

K-Ras G12C = K-Ras G12C (Homo sapiens (Human), UniProt P01116+P62937, G12C); assay: Ras-Raf (BRAF RBD) disruption / FRET / MOA assay, KRAS G12C; type: biochemical; settings: KRAS G12C; Ras-Raf disruption/FRET/MOA assay; read-out: IC50* KRAS G12C FRET data
In short: (§1)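 Compound-driven ternary complex of nucleotide-loaded Ras with cyclophilin A, disrupting BRAF RBD binding. 10-point 3-fold dilution from 30 μM final, 3 h at 25° C, then anti-His Eu-W1024 (10 nM) and anti-GST allophycocyanin (50 nM) for 1.5 h. IC50 from TR-FRET ratio decrease versus DMSO.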

K-Ras G13C = K-Ras G13C (Homo sapiens (Human), UniProt P01116+P62937, G13C); assay: Ras-Raf (BRAF RBD) disruption / FRET / MOA assay, KRAS G13C; type: biochemical; settings: KRAS G13C; Ras-Raf disruption/FRET/MOA assay; read-out: IC50* KRAS G13C FRET data
In short: as §1

KRAS G12S = KRAS G12S (Homo sapiens (Human), UniProt P01116+P62937, G12S); assay: Ras-Raf (BRAF RBD) disruption / FRET / MOA assay, KRAS G12S; type: biochemical; settings: Ras-Raf disruption/FRET/MOA assay; class symbols; read-out: KRAS G12S FRET data IC50
In short: as §1

KRAS G12D = KRAS G12D (Homo sapiens (Human), UniProt P01116+P62937, G12D); assay: Ras-Raf (BRAF RBD) disruption / FRET / MOA assay, KRAS G12D; type: biochemical; settings: Ras-Raf disruption/FRET/MOA assay; class symbols; read-out: KRAS G12D FRET data IC50
In short: as §1

KRAS G12V = KRAS G12V (Homo sapiens (Human), UniProt P01116+P62937, G12V); assay: Ras-Raf (BRAF RBD) disruption / FRET / MOA assay, KRAS G12V; type: biochemical; settings: read-out: IC50* KRAS G12V FRET data
In short: as §1

KRAS WT = KRAS WT (Homo sapiens (Human), UniProt P01116+P62937); assay: Ras-Raf (BRAF RBD) disruption / FRET / MOA assay, KRAS WT; type: biochemical; settings: read-out: IC50* KRAS WT FRET data
In short: as §1

KRAS G13D = KRAS G13D (Homo sapiens (Human), UniProt P01116+P62937, G13D); assay: Ras-Raf (BRAF RBD) disruption / FRET / MOA assay, KRAS G13D; type: biochemical; settings: read-out: IC50* KRAS G13D FRET data
In short: as §1

NRAS G12C = NRAS G12C (Homo sapiens (Human), UniProt P01111+P62937, G12C); assay: Ras-Raf (BRAF RBD) disruption / FRET / MOA assay, NRAS G12C; type: biochemical; settings: read-out: IC50* NRAS G12C FRET data
In short: as §1

[1] = tested on: NCI-H358 cells (K-Ras G12C); assay: Potency assay: pERK in NCI-H358 cells; type: cell-based, human; settings: Homo sapiens, NCI-H358; H358 KRAS G12C; read-out: pERK EC50
In short: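 Compounds are dosed as ten 3-fold dilutions from a 10 mM DMSO stock, in duplicate, and left on cells for 4 h at 37 °C, 5% CO2. Phospho-ERK1/2 is then quantified by AlphaLISA SureFire Ultra or In-Cell Western, and IC50 is derived from a 4-parameter sigmoid against log concentration.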

NRAS G12C, sequence (P01111 whole entry G12C): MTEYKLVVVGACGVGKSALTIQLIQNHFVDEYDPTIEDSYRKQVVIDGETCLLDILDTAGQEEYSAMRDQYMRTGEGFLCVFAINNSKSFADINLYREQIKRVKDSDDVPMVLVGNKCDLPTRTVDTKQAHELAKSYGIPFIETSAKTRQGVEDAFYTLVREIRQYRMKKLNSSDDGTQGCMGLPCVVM
NRAS G12C, sequence (P62937 whole entry): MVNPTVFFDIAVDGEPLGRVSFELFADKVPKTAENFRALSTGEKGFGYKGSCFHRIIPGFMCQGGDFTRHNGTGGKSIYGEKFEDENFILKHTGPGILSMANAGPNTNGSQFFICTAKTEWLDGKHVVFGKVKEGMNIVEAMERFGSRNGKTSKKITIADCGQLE
KRAS G12S, sequence (P01116-2 other isoform, or with tags, fused parts or gaps G12S): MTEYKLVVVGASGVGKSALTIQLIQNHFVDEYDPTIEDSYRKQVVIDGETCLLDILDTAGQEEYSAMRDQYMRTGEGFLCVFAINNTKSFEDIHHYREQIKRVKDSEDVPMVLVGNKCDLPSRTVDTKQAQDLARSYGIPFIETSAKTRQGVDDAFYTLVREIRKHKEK
KRAS G12S, sequence (P62937 whole entry): as the sequence (P62937 whole entry) above
KRAS G12V, sequence (P01116-2 other isoform, or with tags, fused parts or gaps G12V): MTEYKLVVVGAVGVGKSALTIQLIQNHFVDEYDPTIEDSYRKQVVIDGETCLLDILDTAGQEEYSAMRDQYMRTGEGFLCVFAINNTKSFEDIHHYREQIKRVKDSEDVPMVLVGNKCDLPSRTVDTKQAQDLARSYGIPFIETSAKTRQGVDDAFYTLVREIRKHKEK
KRAS G12V, sequence (P62937 whole entry): as the sequence (P62937 whole entry) above
KRAS WT, sequence (P01116-2 other isoform, or with tags, fused parts or gaps): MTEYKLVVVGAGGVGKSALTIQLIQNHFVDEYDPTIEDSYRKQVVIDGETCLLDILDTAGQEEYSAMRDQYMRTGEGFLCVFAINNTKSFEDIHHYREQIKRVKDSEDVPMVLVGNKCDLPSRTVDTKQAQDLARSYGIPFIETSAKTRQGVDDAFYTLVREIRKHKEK
KRAS WT, sequence (P62937 whole entry): as the sequence (P62937 whole entry) above
KRAS G13D, sequence (P01116-2 other isoform, or with tags, fused parts or gaps G13D): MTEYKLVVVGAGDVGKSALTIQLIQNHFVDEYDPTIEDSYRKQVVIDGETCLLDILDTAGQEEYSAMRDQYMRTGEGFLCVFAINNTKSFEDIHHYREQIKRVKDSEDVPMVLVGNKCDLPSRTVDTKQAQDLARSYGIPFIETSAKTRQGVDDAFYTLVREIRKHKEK
KRAS G13D, sequence (P62937 whole entry): as the sequence (P62937 whole entry) above
K-Ras G12C, sequence (P01116-2 other isoform, or with tags, fused parts or gaps G12C): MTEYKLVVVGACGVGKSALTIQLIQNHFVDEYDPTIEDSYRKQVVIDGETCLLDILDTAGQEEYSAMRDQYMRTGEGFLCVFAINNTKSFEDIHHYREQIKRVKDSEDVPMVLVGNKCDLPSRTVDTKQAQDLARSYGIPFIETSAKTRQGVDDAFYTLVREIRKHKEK
K-Ras G12C, sequence (P62937 whole entry): as the sequence (P62937 whole entry) above
KRAS G12D, sequence (P01116-2 other isoform, or with tags, fused parts or gaps G12D): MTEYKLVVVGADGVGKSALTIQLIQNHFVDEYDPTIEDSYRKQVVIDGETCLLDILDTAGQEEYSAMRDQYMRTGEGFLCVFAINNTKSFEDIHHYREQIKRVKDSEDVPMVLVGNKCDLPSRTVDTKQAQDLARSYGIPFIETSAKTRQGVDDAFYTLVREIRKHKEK
KRAS G12D, sequence (P62937 whole entry): as the sequence (P62937 whole entry) above
K-Ras G13C, sequence (P01116-2 other isoform, or with tags, fused parts or gaps G13C): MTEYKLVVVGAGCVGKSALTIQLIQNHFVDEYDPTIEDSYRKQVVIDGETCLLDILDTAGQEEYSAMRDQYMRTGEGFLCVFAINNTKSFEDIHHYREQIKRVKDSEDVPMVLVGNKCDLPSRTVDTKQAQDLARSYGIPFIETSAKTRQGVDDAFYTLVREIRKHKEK
K-Ras G13C, sequence (P62937 whole entry): as the sequence (P62937 whole entry) above

Compound | IC50 (NCI-H358 (K-Ras G12C); Homo sapiens, NCI-H358, 120 h) [µM] | IC50 (K-Ras G12C) | IC50 (K-Ras G13C) | IC50 (KRAS G12S) | IC50 (KRAS G12D) | IC50 (KRAS G12V) | IC50 (KRAS WT) | IC50 (KRAS G13D) | IC50 (NRAS G12C) | EC50 [1] [µM] | IC50 (NCI-H358 (K-Ras G12C)) [µM]
C=CC(=O)N1CC[C@H](C(=O)N(C)[C@H](C(=O)N[C@H]2Cc3cccc(c3)-c3ccc4c(c3)c(c(-c3ccccc3[C@H](C)OC)n4CC)CC(C)(C)COC(=O)[C@@H]3CCCN(N3)C2=O)C(C)C)C1 (atropisomer, axis not shown) [Example A114] | 0.1 to 1 | > 10 µM | > 10 µM | > 10 µM | > 10 µM | > 10 µM | > 10 µM | > 10 µM | > 10 µM |  | 
C=CC(=O)N1CC[C@H](C(=O)N(C)[C@H](C(=O)N[C@H]2Cc3nc(cs3)-c3ccc4c(c3)c(c(-c3cccnc3[C@H](C)OC)n4CC)CC(C)(C)C/C=C/[C@@H]3CCCN(N3)C2=O)C(C)C)C1 (atropisomer, axis not shown) [Example A286] | > 1 | > 10 µM | > 10 µM | > 10 µM | > 10 µM | > 10 µM | > 10 µM | > 10 µM | > 10 µM |  | 
C=CC(=O)N1CC[C@H](C(=O)N(C2CC2)[C@H](C(=O)N[C@H]2Cc3cccc(c3)-c3ccc4c(c3)c(c(-c3cccnc3[C@H](C)OC)n4CC)CC(C)(C)COC(=O)[C@@H]3CCCN(N3)C2=O)C(C)C)C1 (atropisomer, axis not shown) [Example A398] | 0.1 to 1 | 1 to 10 µM | 1 to 10 µM | > 10 µM | > 10 µM | 1 to 10 µM | 1 to 10 µM | > 10 µM | 1 to 10 µM |  | 
C=CC(=O)N1CC[C@H](C(=O)N(C)[C@H](C(=O)N[C@H]2Cc3cccc(c3)-c3ccc4c(c3)c(c(-c3cccnc3[C@H](C)OC)n4CC)CC(C)(C)COC(=O)[C@@H]3CCCN(N3)C2=O)C(C)C)[C@@H]1C (atropisomer, axis not shown) [Example A480] | > 1 | 1 to 10 µM | 1 to 10 µM | > 10 µM | > 10 µM | > 10 µM | > 10 µM | > 10 µM | 1 to 10 µM |  | 
C=CC(=O)N1CC[C@H](C(=O)N(C)[C@H](C(=O)N[C@H]2Cn3cnc(n3)-c3ccc4c(c3)c(c(-c3cccnc3[C@H](C)OC)n4CC)CC(C)(C)COC(=O)[C@@H]3CCCN(N3)C2=O)C(C)C)C1 (atropisomer, axis not shown) [Example A506] | 0.1 to 1 | 0.1 to 1 µM | 1 to 10 µM | 1 to 10 µM | > 10 µM | 1 to 10 µM | 1 to 10 µM | > 10 µM | 0.1 to 1 µM |  | 
C=CC(=O)N1CC[C@H](C(=O)N(C)[C@H](C(=O)N[C@H]2Cc3cccc(c3)-c3ccc4c(c3)c(c(-c3cc(C5CCN(C)CC5)cnc3[C@H](C)OC)n4CC)CC(C)(C)COC(=O)[C@@H]3CCCN(N3)C2=O)C(C)C)C1 (atropisomer, axis not shown) [Example A516] |  | 1 to 10 µM | 1 to 10 µM | > 10 µM | > 10 µM | > 10 µM | > 10 µM | > 10 µM | 1 to 10 µM |  | > 1
C=CC(=O)N1CC(OCC(C(=O)N[C@H]2Cc3cc(cc(C(F)F)c3)-c3ccc4c(c3)c(c(-c3cccnc3[C@H](C)OC)n4CC(F)(F)F)CC(C)(C)COC(=O)[C@@H]3CCCN(N3)C2=O)C(C)C)C1 (mixture of isomers) [Example A428] | > 1 | > 10 µM | > 10 µM | > 10 µM | > 10 µM | > 10 µM | > 10 µM | > 10 µM | > 10 µM |  | 
C=CC(=O)C1C[C@@H](C(=O)N(C)[C@H](C(=O)N[C@H]2Cc3cc(O)cc(c3)-c3ccc4c(c3)c(c(-c3ccc5c(c3)CN(C)C5)n4CC)CC(C)(C)COC(=O)[C@@H]3CCCN(N3)C2=O)C(C)C)CN1 (stereo partly drawn) [Example A212] |  | 0.1 to 1 µM and 1 to 10 µM | 1 to 10 µM and > 10 µM | 1 to 10 µM and > 10 µM | > 10 µM | 1 to 10 µM and > 10 µM | 1 to 10 µM and > 10 µM | 1 to 10 µM and > 10 µM | 0.1 to 1 µM and 1 to 10 µM | < 5 | 
C=CC(=O)C1C[C@@H](C(=O)N(C)[C@H](C(=O)N[C@H]2Cc3cc(O)cc(c3)-c3ccc4c(c3)c(c(-c3ccccc3CCOC)n4CC)CC(C)(C)COC(=O)[C@@H]3CCCN(N3)C2=O)C(C)C)[C@@H](OC)N1 (stereo partly drawn) [Example A214] |  | 10 nM to 100 nM (2×) and 1 µM to 10 µM (2×) | 1 µM to 10 µM (3×) and > 10 µM | 1 µM to 10 µM (2×) and > 10 µM (2×) | > 10 µM | > 10 µM | 1 to 10 µM | > 10 µM | 100 nM to 1 µM and > 10 µM (2×) | < 5 | 
CCn1c(-c2ccccc2CCOC)c2c3cc(ccc31)-c1cc(O)cc(c1)C[C@H](NC(=O)[C@H](C(C)C)N(C)C(=O)c1ccc(NC(=O)/C=C/CN(C)C)cc1)C(=O)N1CCC[C@H](N1)C(=O)OCC(C)(C)C2 [Example A225] |  | 10 nM to 100 nM (2×) and 1 µM to 10 µM (2×) | 1 µM to 10 µM (3×) and > 10 µM | 1 µM to 10 µM (2×) and > 10 µM (2×) | > 10 µM | > 10 µM | 1 to 10 µM | > 10 µM | 100 nM to 1 µM and > 10 µM (2×) | < 5 | 
CCn1c(-c2cccnc2COC)c2c3cc(ccc31)-c1cc(O)cc(c1)C[C@H](NC(=O)[C@H](C(C)C)N(C)C(=O)[C@H]1CCN(C(=O)C#CC3(N(C)C)COC3)C1)C(=O)N1CCC[C@H](N1)C(=O)OCC(C)(C)C2 [Example A241] |  | 0.01 to 0.1 µM | 0.1 to 1 µM | 0.1 to 1 µM and 1 to 10 µM | 1 to 10 µM and > 10 µM | 0.1 to 1 µM and 1 to 10 µM | 1 to 10 µM | 1 to 10 µM | 0.01 to 0.1 µM | < 5 | 

Continued, in another order:

IC50 (NCI-H358 (K-Ras G12C); Homo sapiens, NCI-H358, 120 h) [µM] | IC50 (K-Ras G12C) | IC50 (K-Ras G13C) | IC50 (KRAS G12S) | IC50 (KRAS G12D) | IC50 (KRAS G12V) | IC50 (KRAS WT) | IC50 (KRAS G13D) | IC50 (NRAS G12C) | EC50 [1] [µM] | Compound | IC50 (NCI-H358 (K-Ras G12C)) [µM]
 | 1 to 10 µM | > 10 µM | > 10 µM | > 10 µM | > 10 µM | > 10 µM | > 10 µM | 1 to 10 µM |  | CCn1c(-c2cccnc2[C@H](C)OC)c2c3cc(ccc31)-c1cccc(c1)C[C@H](NC(=O)[C@H](C(C)C)N(C)C(=O)[C@H]1CCN(C(=O)/C=C/CN3CC(OC)C3)C1)C(=O)N1CCC[C@H](N1)C(=O)OCC(C)(C)C2 (atropisomer, axis not shown) [Example A203] | > 1
> 1 | 1 to 10 µM | > 10 µM | > 10 µM | > 10 µM | > 10 µM | > 10 µM | > 10 µM | 1 to 10 µM |  | C=CC(=O)N1CC[C@H](C(=O)N(C)[C@H](C(=O)N[C@H]2Cc3ncc(n3C)-c3ccc4c(c3)c(c(-c3cccnc3[C@H](C)OC)n4CC)CC(C)(C)COC(=O)[C@@H]3CCCN(N3)C2=O)C(C)C)C1 (atropisomer, axis not shown) [Example A276] | 
> 1 | > 10 µM | > 10 µM | > 10 µM | > 10 µM | > 10 µM | > 10 µM | > 10 µM | > 10 µM |  | C=CC(=O)N1CC[C@H](C(=O)N(C)[C@H](C(=O)N[C@H]2Cc3nc(cs3)-c3ccc4c(c3)c(c(-c3cccnc3[C@H](C)OC)n4CC)CC(C)(C)CCC[C@@H]3CCCN(N3)C2=O)C(C)C)C1 (atropisomer, axis not shown) [Example A288] | 
0.1 to 1 | > 10 µM | 1 to 10 µM | > 10 µM | > 10 µM | > 10 µM | > 10 µM | > 10 µM | > 10 µM |  | C/C=C(\C)S(=O)(=O)N1CC[C@H](C(=O)N(C)[C@H](C(=O)N[C@H]2Cc3cccc(c3)-c3ccc4c(c3)c(c(-c3cccnc3[C@H](C)OC)n4CC)CC(C)(C)COC(=O)[C@@H]3CCCN(N3)C2=O)C(C)C)C1 (atropisomer, axis not shown) [Example A308] | 
 | 0.01 to 0.1 µM | 0.1 to 1 µM | 1 to 10 µM | > 10 µM | 1 to 10 µM | 1 to 10 µM | > 10 µM | 0.01 to 0.1 µM | < 5 | CO[C@@H](C)c1ncccc1-c1c2c3cc(ccc3n1CC(F)(F)F)-c1nnc(o1)C[C@H](NC(=O)[C@H](C(C)C)N(C)C(=O)[C@H]1CCN(C(=O)C#CC(C)(C)N3CCC3)C1)C(=O)N1CCC[C@H](N1)C(=O)OCC(C)(C)C2 [Example A423] | 
